Format in all cases: cell-based, murine and human
Common to all, as to details: GAL4-PPAR LBD chimera

One test concerns the target T1, PPAR-alpha (UniProt Q07869).
T1 sequence (Q07869 1-468): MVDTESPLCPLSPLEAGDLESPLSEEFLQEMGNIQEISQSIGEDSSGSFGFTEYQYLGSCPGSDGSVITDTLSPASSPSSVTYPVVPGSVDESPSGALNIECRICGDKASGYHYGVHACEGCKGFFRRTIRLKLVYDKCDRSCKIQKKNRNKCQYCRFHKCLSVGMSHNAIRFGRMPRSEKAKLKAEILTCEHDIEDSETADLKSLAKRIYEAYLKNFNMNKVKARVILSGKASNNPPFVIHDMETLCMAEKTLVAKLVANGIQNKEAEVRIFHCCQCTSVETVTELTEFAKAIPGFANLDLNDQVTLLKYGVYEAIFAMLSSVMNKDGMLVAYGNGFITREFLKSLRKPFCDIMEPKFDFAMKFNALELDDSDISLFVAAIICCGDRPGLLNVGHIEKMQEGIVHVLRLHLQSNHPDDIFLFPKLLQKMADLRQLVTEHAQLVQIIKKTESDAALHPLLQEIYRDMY
Briefly: PPAR-alpha transactivation assay (GAL4 chimera, luciferase reporter) in CV-1 cells. The text has this:
(§1) Compounds may be screened for functional potency in transient transfection assays in CV-1 cells for their ability to activate the PPAR subtypes (transactivation assay). A previously established chimeric receptor system was utilized to allow comparison of the relative transcriptional activity of the receptor subtypes on the same synthetic response element and to prevent endogenous receptor activation from complicating the interpretation of results. See, for example, Lehmann, J. M.; Moore, L. B.; Smith-Oliver, T. A; Wilkinson, W. O.; Willson, T. M.; Kliewer, S. A., An antidiabetic thiazolidinedione is a high affinity ligand for peroxisome proliferator-activated receptor […], J. Biol. Chem., 1995, 270, 12953-6. The ligand binding domains for murine and human PPAR-alpha, PPAR-gamma, and PPAR-delta are each fused to the yeast transcription factor GAL4 DNA binding domain. CV-1 cells were transiently transfected with expression vectors for the respective PPAR chimera along with a reporter construct containing four or five copies of the GAL4 DNA binding site driving expression of luciferase. After 8-16 h, the cells are replated into multi-well assay plates and the media is exchanged to phenol-red free DME medium supplemented with 5% delipidated calf serum. 4 hours after replating, cells were treated with either compounds or 1% DMSO for 20-24 hours. Luciferase activity was then assayed with Britelite (Perkin Elmer) following the manufacturer's protocol and measured with either the Perkin Elmer Viewlux or Molecular Devices Acquest (see, for example, Kliewer, S. A., et. al. Cell 1995, 83, 813-819). Rosiglitazone is used as a positive control in the PPARγ assay. Wy-14643 and GW7647 are used as positive controls in the PPARα assay. GW501516 is used as the positive control in the PPARδ assay.
(§2) Compounds of Examples 1-141 were assayed to measure their biological activity with respect to their EC50 values for modulating PPAR-alpha, PPAR-gamma, and PPAR-delta as set forth in Table 1.
(In general: In a reporter assay the amount or activity of a reporter protein is the signal.)

The next test deals with T2, PPAR-gamma (UniProt P37231).
T2 sequence (P37231 1-505): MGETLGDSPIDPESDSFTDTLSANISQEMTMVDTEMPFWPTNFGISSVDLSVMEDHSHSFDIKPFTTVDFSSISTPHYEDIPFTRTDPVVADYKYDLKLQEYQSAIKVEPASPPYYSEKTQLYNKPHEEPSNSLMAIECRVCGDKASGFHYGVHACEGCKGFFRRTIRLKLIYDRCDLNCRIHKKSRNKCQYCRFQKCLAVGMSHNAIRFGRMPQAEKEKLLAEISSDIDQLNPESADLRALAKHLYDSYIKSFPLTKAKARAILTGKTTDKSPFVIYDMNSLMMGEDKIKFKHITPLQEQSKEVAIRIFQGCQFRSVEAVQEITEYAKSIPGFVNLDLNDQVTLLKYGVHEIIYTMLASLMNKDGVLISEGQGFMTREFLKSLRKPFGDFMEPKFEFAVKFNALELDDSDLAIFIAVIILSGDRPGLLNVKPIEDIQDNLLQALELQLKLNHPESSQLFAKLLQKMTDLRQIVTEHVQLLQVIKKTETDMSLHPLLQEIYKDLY
Briefly: PPAR-gamma transactivation assay (GAL4 chimera, luciferase reporter) in CV-1 cells.
Source text: as §1, §2

The next test deals with T3, PPAR-delta (UniProt Q03181).
T3 sequence (Q03181 1-441): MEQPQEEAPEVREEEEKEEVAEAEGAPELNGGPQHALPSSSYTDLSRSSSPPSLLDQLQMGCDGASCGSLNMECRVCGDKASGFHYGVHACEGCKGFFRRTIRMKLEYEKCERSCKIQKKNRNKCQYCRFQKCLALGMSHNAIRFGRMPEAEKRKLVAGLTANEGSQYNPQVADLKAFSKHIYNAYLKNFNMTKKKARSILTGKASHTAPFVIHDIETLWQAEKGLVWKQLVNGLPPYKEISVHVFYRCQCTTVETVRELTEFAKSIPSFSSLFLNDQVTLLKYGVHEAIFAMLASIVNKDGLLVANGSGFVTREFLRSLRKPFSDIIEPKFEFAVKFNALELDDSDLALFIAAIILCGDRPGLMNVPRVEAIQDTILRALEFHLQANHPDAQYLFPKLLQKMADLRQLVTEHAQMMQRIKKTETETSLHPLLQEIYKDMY
Briefly: PPAR-delta transactivation assay (GAL4 chimera, luciferase reporter) in CV-1 cells.
Source text: as §1, §2

Each structure is given as a SMILES string. pEC50: −log10 of the molar value.

One may read the pEC50 as the negative decadic logarithm of the EC50, by convention in mol/L. The low end stands for a high EC50, the high end for a low EC50. With `O=C(O)C1CCc2ccc(S(=O)(=O)N3CC=C(c4ccc(C(F)(F)F)cc4)CC3)cc21` (stereo not drawn) [Example 22, 6-[4-(4-trifluoromethyl-phenyl)-3,6-dihydro-2H-pyridine-1-sulfonyl]-indan-1-carboxylic acid], the pEC50 at PPAR-alpha was over 5.30; on PPAR-gamma, 4.00 to 5.30; at PPAR-delta it was over 5.30.
In the case of `C[C@H]1CN(c2ccc(C(F)(F)F)cn2)CCN1S(=O)(=O)c1ccc2c(c1)C(C(=O)O)CC2` (stereo partly drawn) [Example 23, 6-[2-(S)-methyl-4-(5-trifluoromethyl-pyridin-2-yl)-piperazine-1-sulfonyl]-indan-1-carboxylic acid], the pEC50 at PPAR-alpha, on PPAR-gamma and at PPAR-delta was over 5.30 in each case.
Regarding `C[C@@H]1CN(c2ccc(C(F)(F)F)cn2)CCN1S(=O)(=O)c1ccc2c(c1)C(C(=O)O)CC2` (stereo partly drawn) [Example 24, 6-[2-(R)-methyl-4-(5-trifluoromethyl-pyridin-2-yl)-piperazine-1-sulfonyl]-indan-1-carboxylic acid], the pEC50 on PPAR-alpha, at PPAR-gamma and on PPAR-delta was over 5.30 throughout.
`C[C@@H]1CN(S(=O)(=O)c2ccc3c(c2)C(C(=O)O)CC3)CCN1c1ccc(C(F)(F)F)cn1` (stereo partly drawn) [Example 25, 6-[3-(R)-methyl-4-(5-trifluoromethyl-pyridin-2-yl)-piperazine-1-sulfonyl]-indan-1-carboxylic acid]: the pEC50 at PPAR-alpha, at PPAR-gamma and at PPAR-delta was over 5.30 throughout.
For `O=C(O)C1CCc2ccc(S(=O)(=O)N3CCN(c4ccc(C(F)(F)F)c(F)c4)CC3)cc21` (stereo not drawn) [Example 26, 6-[4-(3-fluoro-4-trifluoromethyl-phenyl)-piperazine-1-sulfonyl]-indan-1-carboxylic acid], the pEC50 at PPAR-alpha, on PPAR-gamma and on PPAR-delta was over 5.30 each time.
Take `C[C@@H]1CN(c2ccc(C(F)(F)F)cn2)C[C@H](C)N1S(=O)(=O)c1ccc2c(c1)C(C(=O)O)CC2` (stereo partly drawn) [Example 27, 6-[cis-2,6-dimethyl-4-(5-trifluoromethyl-pyridin-2-yl)-piperazine-1-sulfonyl]-indan-1-carboxylic acid]: the pEC50 on PPAR-alpha was 4.00 to 5.30; at PPAR-gamma, 4.00 to 5.30; at PPAR-delta, over 5.30.
On to `C[C@@H]1CN(c2ccc(C(F)(F)F)cn2)C[C@H](C)N1S(=O)(=O)c1ccc2c(c1)C(C)(C(=O)O)CC2` (stereo partly drawn) [Example 28, 6-[cis-2,6-dimethyl-4-(5-trifluoromethyl-pyridin-2-yl)-piperazine-1-sulfonyl]-1-methyl-indan-1-carboxylic acid], for which the pEC50 on PPAR-alpha is under 4.00; on PPAR-gamma, 4.00 to 5.30; at PPAR-delta, over 5.30.
Taken in the same sequence, the figures for `COc1cc2c(cc1S(=O)(=O)N1CCN(c3ccc(C(F)(F)F)cc3)CC1)CCC2CC(=O)O` (stereo not drawn) [Example 29, {6-methoxy-5-[4-(4-trifluoromethyl-phenyl)-piperazine-1-sulfonyl]-indan-1-yl}-acetic acid] were 4.00 to 5.30, 4.00 to 5.30 and 4.00 to 5.30.
The like results for `COc1cc2c(cc1S(=O)(=O)N1CCN(c3ccc(Cl)c(Cl)c3)CC1)CCC2CC(=O)O` (stereo not drawn) [Example 30, {5-[4-(3,4-dichloro-phenyl)-piperazine-1-sulfonyl]-6-methoxy-indan-1-yl}-acetic acid] were, in that order, 4.00 to 5.30, 4.00 to 5.30 and 4.00 to 5.30.
Taken in the same sequence, the figures for `O=C(O)Cn1ccc2cc(S(=O)(=O)N3CCN(c4ccc(C(F)(F)F)cc4)CC3)ccc21` [Example 31, {5-[4-(4-Trifluoromethyl-phenyl)-piperazine-1-sulfonyl]-indol-1-yl}-acetic acid] were under 4.00, under 4.00 and 4.00 to 5.30.
Consider `O=C(O)Cn1ccc2cc(Br)c(S(=O)(=O)N3CCN(c4ccc(C(F)(F)F)cc4)CC3)cc21` [Example 32, {5-Bromo-6-[4-(4-trifluoromethyl-phenyl)-piperazine-1-sulfonyl]-indol-1-yl}-acetic acid], for which the pEC50 at PPAR-alpha is under 4.00; at PPAR-gamma, 4.00 to 5.30; at PPAR-delta it was over 5.30.
Taken in the same sequence, the figures for `O=C(O)Cn1ccc2cc(Br)c(S(=O)(=O)N3CCN(c4ccc(C(F)(F)F)cn4)CC3)cc21` [Example 33, {5-Bromo-6-[4-(5-trifluoromethyl-pyridin-2-yl)-piperazine-1-sulfonyl]-indol-1-yl}-acetic acid] were under 4.00, 4.00 to 5.30 and over 5.30.
Taken in the same sequence, the figures for `O=C(O)Cn1ccc2ccc(S(=O)(=O)N3CCN(c4ccc(C(F)(F)F)cc4)CC3)cc21` [Example 34, {6-[4-(4-Trifluoromethyl-phenyl)-piperazine-1-sulfonyl]-indol-1-yl}-acetic acid] were under 4.00, 4.00 to 5.30 and over 5.30.
The like results for `O=C(O)Cn1ccc2ccc(S(=O)(=O)N3CCN(c4ccc(C(F)(F)F)cn4)CC3)cc21` [Example 35, {6-[4-(5-trifluoromethyl-pyridin-2-yl)-piperazine-1-sulfonyl]-indol-1-yl}-acetic acid] were, in that order, 4.00 to 5.30, 4.00 to 5.30 and over 5.30.
On to `COc1ccc2c(CC(=O)O)csc2c1S(=O)(=O)N1CCN(c2ccc(C(F)(F)F)cn2)CC1` [Example 36, {6-Methoxy-7-[4-(5-trifluoromethyl-pyridin-2-yl)-piperazine-1-sulfonyl]-benzo[b]thiophen-3-yl}-acetic acid], for which the pEC50 was under 4.00 on PPAR-alpha, 4.00 to 5.30 on PPAR-gamma and under 4.00 at PPAR-delta.
As to `O=C(O)Cc1csc2ccc(S(=O)(=O)N3CCN(c4ccc(C(F)(F)F)cn4)CC3)cc12` [Example 37, {5-[4-(5-Trifluoromethyl-pyridin-2-yl)piperazine-1-sulfonyl]-benzo[b]thiophen-3-yl}-acetic acid], the pEC50 on PPAR-alpha is 4.00 to 5.30; at PPAR-gamma, over 5.30; on PPAR-delta, over 5.30.
On to `CC1(C)CN(c2ccc(C(F)(F)F)cn2)CCN1S(=O)(=O)c1ccc2c(c1)C(C(=O)O)CC2` (stereo not drawn) [Example 38, 6-[2,2-Dimethyl-4-(5-trifluoromethyl-pyridin-2-yl)-piperazine-1-sulfonyl]-indan-1-carboxylic acid], for which the pEC50 on PPAR-alpha, at PPAR-gamma and on PPAR-delta was over 5.30 in each case.
Consider `COC(=O)[C@H]1CN(S(=O)(=O)c2ccc3c(c2)C(C(=O)O)CC3)CCN1c1ccc(C(F)(F)F)cn1` (stereo partly drawn) [Example 39, (R)-4-(3-Carboxy-indane-5-sulfonyl)-1-(5-trifluoromethyl-pyridin-2-yl)-piperazine-2-carboxylic acid methyl ester], for which the pEC50 on PPAR-alpha, at PPAR-gamma and at PPAR-delta was over 5.30 in each case.

Source of the values: patent US7517884B2 (Kalypsys Inc., priority 1998, dated 2009).
